# Experimental data from patent US5798375A, “Treatment of arteriosclerosis and xanthoma” (Sankyo Company, Limited, priority 1995, dated 1998).
# Tests used:
# WHHL rabbits = test: Example 1: stenosis of the coronary arteries in WHHL rabbits; assay type: in vivo; settings: week 32
# Description: WHHL rabbits [2-3 months of age, the Watanabe heritable hyperlipidemic rabbit described in Biochimica et Biophysica Acta, 960, 294-302 (1988)] were randomly assigned to a control group (7 animals, group A), a group receiving pravastatin alone (5 animals, Group B), a group receiving troglitazone alone (7 animals, Group C), and a group receiving a combination of both active substances (6 animals, Group D). Pravastatin was administered orally by gavage at a dose of 50 mg/kg/day once-daily and troglitazone was given in the diet, containing 100 mg/kg of the substance for 32 weeks. The ingested amount was limited to a daily 120 g per rabbit. Blood was withdrawn from the animal immediately before starting the study and 4, 8, 12, 16, 20, 24, 28 and 32 weeks after starting the study and the total cholesterol levels (mg/dl) were determined for each blood sample. The levels are reported as a percentage (%) of the levels measured immediately before starting the study. The animals were sacrificed and necropsied at week 32 to examine (a) the percent lesion area (%) in the total, thoracic or abdominal portion of the aorta; (b) the stenosis (%) of the coronary arteries and (c) the incidence (%) of xanthoma in the digital joints.
# The values actually measured are represented as an average value±standard error in those Tables.
# Male Fl b hamsters = test: Example 4: regression of preformed atherosclerosis in hamsters (Oil Red O stained area); assay type: in vivo
# Description: Synergism of HMG CoA reductase inhibitors and thiazolidinedione insulin sensitizers was examined by another regression model, i.e. the regression of preformed atherosclerosis in hamsters. Male Fl b hamsters (weight about 130 g,) were given a diet containing 0.05% cholesterol for 13 weeks. They were grouped randomly (2-7 animals per group), and then the test samples were administered for 4 weeks while the hamsters were given a normolipidaemic diet. Pravastatin and fluvastatin were mixed with drinking water at the dose of 3 mg/kg and 1.5 mg/kg, respectively, while troglitazone was mixed with the diet at the dose of 30 mg/kg or 100 mg/kg.
# In the case of the combination groups, the dosage was 3 mg/kg+30 mg/kg or 3 mg/kg+100 mg/kg for the pravastatin+troglitazone group, and 1.5 mg/kg+30 mg/kg for the fluvastatin+troglitazone group.
# Namely, the aortic arch was stained with ORO to prepare en face specimens. The percentage area which was positive to the ORO stain over the whole area was measured to represent the degree of aortic lesion.
# [1] = test system: coronary arteriosclerosis and xanthoma; settings: literature: Biochim. Biophys. Acta 960, 294-302 (1988); Atherosclerosis 83, 69-80 (1990); cited from earlier work
compound,measurement,setting,value
"CC[C@H](C)C(=O)O[C@H]1C[C@H](O)C=C2C=C[C@H](C)[C@H](CC[C@@H](O)C[C@@H](O)CC(=O)O)[C@H]21 [Pravastatin, sodium 1,2,6,7,8,8a-hexahydro-6,8-tetrahydroxy-2-methyl-1-naphthaleneheptanoate]","Coronary stenosis, RCA (right coronary artery)",WHHL rabbits; control 13,18%
same,"Coronary stenosis, LAD (left anterior descending artery)",WHHL rabbits; control 24,16%
same,"Coronary stenosis, LSP (left septal artery)",WHHL rabbits; control 40,9%
same,"Coronary stenosis, LCX (left circumflex artery)",WHHL rabbits; control 47,34%
same,"Coronary stenosis, MLC (main left coronary artery)",WHHL rabbits; control 61,71%
same,"Coronary stenosis, MRC (main right coronary artery)",WHHL rabbits; control 79,81%
same,"Stained Area, % of Control",Male Fl b hamsters; 3 mg/kg,106%
same,Stained Area ORO,"Male Fl b hamsters; aortic arch, 3 mg/kg in drinking water, 4 weeks, control 1.82 ± 0.44",1.93 ± 0.33%
same,regression of aortic lesions,"Male Fl b hamsters; pravastatin 3 mg/kg, fluvastatin 1.5 mg/kg, troglitazone 30 mg/kg alone, combinations",no regression of aortic lesions
same,"prevention of coronary arteriosclerosis and xanthoma, efficacy",[1],"may be prevented in rabbits receiving pravastatin, but its efficacy remains insufficient"
